Patent US20060228387A1, “Dihydronepetalactams and N-substituted derivatives thereof” (priority 2004, published 2006)

test system: Aedes aegypti mosquitoes; experiment: in vitro Gupta box landing assay (insect repellency); conditions: 20 min; 1% (w/v) in isopropyl alcohol, 25 μL on Baudruche membrane; female Aedes aegypti; landings over 20 min vs IPA control
Description: The products of Examples 1-15 were evaluated for insect repellency against Aedes aegypti mosqutioes in the in vitro Gupta box landing assay. In this method a chamber contained 5 wells, each covered by a Baudruche (animal intestine) membrane. Each well was filled with bovine blood containing sodium citrate (to prevent clotting) and ATP (72 mg ATP disodium salt per 26 ml of blood), and heated to 37° C. A volume of 25 μL of isopropyl alcohol (IPA) containing one test specimen or control was applied to each membrane. The concentrations of the dihydronepetalactam products were 1% (w/v) in IPA. The negative control was neat IPA and the positive control was a 1% (w/v) solution of DEET. After 5 min, approximately 250 4-day-old female Aedes aegypti mosquitoes were introduced into the chamber. The number of mosquitoes probing the membranes for each treatment was recorded at 2 min intervals over 20 min. The results obtained in this manner with respect to the compounds of […] are depicted in FIGS. 1-10 (labeled as Examples 16˜25), wherein each datum represents the mean of five replicate experiments. […] The % mean repellencies at 1% (w/v) are depicted in Table 2 for the compounds of Examples 1˜15, wherein R refers to the substituent on dihydronepetalactam.

How did the pest or weed control at 10000 µg/mL turn out when `C[C@@H]1CNC(=O)[C@H]2[C@@H]1CC[C@@H]2C` [V, (4S,4aR,7S,7aR)-4,7-dimethyloctahydro-1H-cyclopenta[c]pyridin-1-one] was run?
The pest or weed control at 10000 µg/mL was 69.6%.

Which pest or weed control at 10000 µg/mL does the source give for `CCN1C[C@@H](C)[C@H]2CC[C@H](C)[C@H]2C1=O` [IVb, (4S,4aR,7S,7aR)-2-ethyl-4,7-dimethyloctahydro-1H-cyclopenta[c]pyridin-1-one] here?
The pest or weed control at 10000 µg/mL was 96.8%.

How did the pest or weed control at 10000 µg/mL turn out when `C[C@@H]1CN(c2ccc(Br)cc2)C(=O)[C@H]2[C@@H]1CC[C@@H]2C` [VIIc, (4S,4aR,7S,7aR)-2-(4-bromophenyl)-4,7-dimethyloctahydro-1H-cyclopenta[c]pyridin-1-one] was run?
Its pest or weed control at 10000 µg/mL is 54.1%.

Which pest or weed control at 10000 µg/mL does the source give for `CCCCN1C[C@@H](C)[C@H]2CC[C@H](C)[C@H]2C1=O` [IVd, (4S,4aR,7S,7aR)-2-n-butyl-4,7-dimethyloctahydro-1H-cyclopenta[c]pyridin-1-one] here?
Its pest or weed control at 10000 µg/mL is 86.3%.

`CCCN1C[C@@H](C)[C@H]2CC[C@H](C)[C@H]2C1=O` [IVc, (4S,4aR,7S,7aR)-2-n-propyl-4,7-dimethyloctahydro-1H-cyclopenta[c]pyridin-1-one] was tested. Which pest or weed control at 10000 µg/mL did it give?
Its pest or weed control at 10000 µg/mL is 87.9%.

How did the pest or weed control at 10000 µg/mL turn out when `CCCCCCN1C[C@@H](C)[C@H]2CC[C@H](C)[C@H]2C1=O` [IVf, (4S,4aR,7S,7aR)-2-n-hexyl-4,7-dimethyloctahydro-1H-cyclopenta[c]pyridin-1-one] was run?
The pest or weed control at 10000 µg/mL was 99.8%.

How did the pest or weed control at 10000 µg/mL turn out when `CCCCCCCCN1C[C@@H](C)[C@H]2CC[C@H](C)[C@H]2C1=O` [IVg, (4S,4aR,7S,7aR)-2-n-octyl-4,7-dimethyloctahydro-1H-cyclopenta[c]pyridin-1-one] was run?
The pest or weed control at 10000 µg/mL was 98.3%.

With `C#CCN1C[C@@H](C)[C@H]2CC[C@H](C)[C@H]2C1=O` [IVj, (4S,4aR,7S,7aR)-2-n-propargyl-4,7-dimethyloctahydro-1H-cyclopenta[c]pyridin-1-one] as the molecule, how does the pest or weed control at 10000 µg/mL read?
Its pest or weed control at 10000 µg/mL is 88.1%.

For `C[C@@H]1CN(c2ccc(Cl)cc2)C(=O)[C@H]2[C@@H]1CC[C@@H]2C` [VIIb, (4S,4aR,7S,7aR)-2-(4-chlorophenyl)-4,7-dimethyloctahydro-1H-cyclopenta[c]pyridin-1-one], which pest or weed control at 10000 µg/mL is on record?
Its pest or weed control at 10000 µg/mL is 81.5%.

Which pest or weed control at 10000 µg/mL does the source give for `C=CCN1C[C@@H](C)[C@H]2CC[C@H](C)[C@H]2C1=O` [IVi, (4S,4aR,7S,7aR)-2-n-allyl-4,7-dimethyloctahydro-1H-cyclopenta[c]pyridin-1-one] here?
Its pest or weed control at 10000 µg/mL is 90.6%.

With `C[C@@H]1CN(c2ccccc2)C(=O)[C@H]2[C@@H]1CC[C@@H]2C` [VIIa, (4S,4aR,7S,7aR)-4,7-dimethyl-2-phenyloctahydro-1H-cyclopenta[c]pyridin-1-one] as the molecule, how does the pest or weed control at 10000 µg/mL read?
The pest or weed control at 10000 µg/mL was 59.5%.

Which pest or weed control at 10000 µg/mL does the source give for `CCCCCN1C[C@@H](C)[C@H]2CC[C@H](C)[C@H]2C1=O` [IVe, (4S,4aR,7S,7aR)-2-n-pentyl-4,7-dimethyloctahydro-1H-cyclopenta[c]pyridin-1-one] here?
Its pest or weed control at 10000 µg/mL is 100%.

With `C[C@@H]1CN(C)C(=O)[C@H]2[C@@H]1CC[C@@H]2C` [IVa, (4S,4aR,7S,7aR)-2,4,7-trimethyloctahydro-1H-cyclopenta[c]pyridin-1-one] as the molecule, how does the pest or weed control at 10000 µg/mL read?
Its pest or weed control at 10000 µg/mL is 39.6%.

Which pest or weed control at 10000 µg/mL does the source give for `CC(C)N1C[C@@H](C)[C@H]2CC[C@H](C)[C@H]2C1=O` [IVh, (4S,4aR,7S,7aR)-2-n-isopropyl-4,7-dimethyloctahydro-1H-cyclopenta[c]pyridin-1-one] here?
The pest or weed control at 10000 µg/mL was 69.4%.
